# Results from ChEMBL document CHEMBL3286309, “4,5-Di-substituted benzyl-imidazol-2-substituted amines as the structure template for the design and synthesis of reversal agents against P-gp-mediated multidrug resistance breast cancer cells” (Eur J Med Chem, 2014).
# Experiments:
# L929 = assay: Cytotoxicity against mouse L929 cells after 3 days by MTS assay; assay type: cell-based; conditions: L929, 72 h
# [1] = Cytotoxicity against human MDA435/LCC6 cells after 3 days by MTS assay; assay type: cell-based; conditions: MDA-435/LCC6, 72 h
# [2] = Cytotoxicity against human MDA435/LCC6MDR cells after 3 days by MTS assay; assay type: ADME, cell-based; conditions: 72 h
# [3] = Cytotoxicity against human MDA435/LCC6 cells after 5 days by MTS assay; assay type: functional, cell-based; conditions: MDA-435/LCC6, 120 h
# [4] = Cytotoxicity against human MDA435/LCC6MDR cells after 5 days by MTS assay; assay type: functional, cell-based; conditions: 120 h
SMILES,IC50 (L929) [µM],IC50 [1] [µM],IC50 [2] [µM],IC50 [3] [µM],IC50 [4] [µM]
CCN(CC)c1ccc(Cc2c(Cc3ccc(OC)c(OC)c3)nc(NC(=O)c3cc(OC)c(OC)c(OC)c3)n2C)cc1,47.4,45.2,38.3,,
CCN(CC)c1ccc(Cc2c(Cc3ccc(OC)c(OC)c3)nc(N(C(=O)/C=C/c3cc(OC)c(OC)c(OC)c3)C(=O)/C=C/c3cc(OC)c(OC)c(OC)c3)n2C)cc1,18.2,13.7,9.1,,
CC(=O)O[C@H]1C(=O)[C@@]2(C)[C@H]([C@H](OC(=O)c3ccccc3)[C@]3(O)C[C@H](OC(=O)[C@H](O)[C@@H](NC(=O)c4ccccc4)c4ccccc4)C(C)=C1C3(C)C)[C@]1(OC(C)=O)CO[C@@H]1C[C@@H]2O [PACLITAXEL],,,,0.0026,0.149
